We go through six compounds from ChEMBL document CHEMBL1151535, “Oxiranes with quinoline substitution : Stereoselective synthesis and antiviral activity” (1996).

The structures appear in SMILES notation.

Common to all, as to assay type: functional
Experiment [1] has as its system Encephalomyocarditis virus. In words: In vitro antiviral activity against Encephalomyocarditis virus(EMCV) […], at the concentration 1000-1 ug/ml.
The test system of experiment [2] is Encephalomyocarditis virus. Nature of the experiment: In vitro antiviral activity against Encephalomyocarditis virus(EMCV) […], at the concentration 7.8 ug/ml.
For another experiment, the system named is Mus musculus. Nature of the experiment: In vivo antiviral activity against Encephalomyocarditis virus(EMCV) in mice, at the concentration 0.25 mg/mouse.
Experiment [3] relates to Encephalomyocarditis virus. Nature of the experiment: In vitro antiviral activity against Encephalomyocarditis virus(EMCV) […], at the concentration 15.6 ug/ml.

In experiment [1], `Cc1cc(NNC(=O)[C@@H]2O[C@H]2c2ccncc2)nc2ccccc12` showed a Protection of 0%.
For the compound `Cc1cc(NNC(=O)[C@@H]2O[C@H]2c2cccc([N+](=O)[O-])c2)nc2ccccc12`, the Protection in experiment [1] worked out at 0%.
On to `Cc1cc(NNC(=O)[C@@H]2O[C@H]2c2ccc3c(c2)OCO3)nc2ccccc12`, for which the Protection in experiment [2] worked out at 75%; in the experiment on Mus musculus, 10%.
In the case of `COc1ccc([C@@H]2O[C@H]2C(=O)NNc2cc(C)c3ccccc3n2)cc1`, the Protection in the experiment with Mus musculus stood at 25%; in experiment [3] it was 75%.
`Cc1cc(NNC(=O)CCl)nc2ccccc12` registered a Protection in experiment [1] of 0%.
In experiment [1], `Cc1cc(NNC(=O)[C@@H]2O[C@H]2c2ccc(Cl)cc2)nc2ccccc12` showed a Protection of 0%.
